Key:
HSV-1 = assay: Virus titer analysis of HSV; type: cell-based; details: MOI=3; harvested at 24 hpi
Source text: FIGS. 10A-10B show data to provide support for Retro94 and derivatives being effective against other herpesviruses. […] Samples were harvested at 24 hpi. Representative data shown are from independent replicates. FIG. 10B provides a table showing low nanomolar EC50 values of Retro94F against other herpesviruses.

HCMV [1] = assay: HCMV single-step growth curve / virus titer analysis (MOI=3); type: cell-based, Human cytomegalovirus (HCMV); details: for reduction in infectious virion production: MOI=3, titers at 96 hpi
Protocol: (§1) Infections were done at an MOI of 0.05 for multi-step growth curves and MOI 3 for single-step growth curves. Infections were done on NHDFs unless otherwise noted. Virus was incubated with cells for 2 hours before addition of fresh media. For growth curve analyses, virus was harvested at the indicated time-points for each experiment by scraping the cells into the medium, sonicating 10 times with 1 second pulses, vortexing for 15 seconds, and centrifuging at 13,000 rpm for 10 min. Supernatants were collected, aliquoted and flash-frozen in liquid nitrogen before storage at −80° C.
(§2) For MCMV growth curve analysis, samples were titrated on NIH 3T3 cells and titers were calculated using the 50% tissue culture infective dose method. Both HCMV virus stocks and samples for growth curves were titrated by serial dilutions on MRC5 cells and quantified by the immunological detection of immediate-early proteins as previously described (Britt W J. Human cytomegalovirus: propagation, quantification, and storage. Curr Protoc Microbiol. 2010; Chapter 14: Unit 14E.3). The numbers of stained nuclei were acquired on a Nikon Eclipse Ti Inverted microscope and fluorescent nuclei were quantified using the NIS Elements Software. Images of viral foci from infection of ARPE19 cells were also acquired on Eclipse Ti Inverted microscope. The number and size of foci were quantified using NIS Elements software.
^1H NMR spectra were recorded on a 500 MHz Bruker spectrometer (Billerica, Mass.) using tetramethylsilane (TMS) as the internal reference. The following abbreviations were used to designate chemical shift multiplicities: s=singlet, d=doublet, dd=double doublet, t=triplet, dt=doublet of triplet, m=multiplet. Mass Spec analysis was performed on 4000 Q trap hybrid triple quadrupole/linear ion trap instrument (Applied Biosystems/MDS Sciex) at the proteomic facility at Penn State Hershey Cancer Institute, Hershey, Pa. Thin-layer chromatography (TLC) was on aluminum-supported, precoated silica gel plates (EM Industries, Gibbstown, N.J.). 5-(2-methyl-3-thiazol-4-yl)-2-thiophencarboxaldehyde was purchased from MAYBRIDGE-Thermo Fisher (Cornwall, UK). All other starting materials were obtained from Aldrich Chemical Co. (Milwaukee, Wis.) and used without further purification. Retro94 was added to cells at 2 hpi at a concentration of 10 μM, unless otherwise indicated.

HCMV [2] = assay: HCMV multi-step growth curve (MOI=0.05); type: cell-based, Human cytomegalovirus (HCMV); details: MOI 0.05 pfu/cell; 15 dpi; media exchanged and fresh drug added at 6 dpi
Protocol: as §1
as §2, with “software. […]” for “software.”

[3] = system: cytoplasmic viral assembly compartment (cVAC); assay: Electron microscopy of HCMV-infected cells; type: cell-based, human; details: MOI=3; 96 hpi; treated at 2 hpi
Protocol: Cells were seeded on 60 mm Permanox tissue culture dishes (Nalge Nunc International). Infections were done at an MOI of 3 for 96 hours. Cells were first washed with PBS 3× followed by fixation for 1 hour at 4° C. in fixation buffer (0.5% [vol/vol] glutaraldehyde, 0.04% [wt/vol] paraformaldehyde, 0.1 M sodium cacodylate). Cells were then processed for EM by the Microscopy Imaging Facility (Pennsylvania State University College of Medicine). Briefly, the fixed samples were washed three times with 0.1 M sodium cacodylate, followed by postfixation in 1% osmium −1.5% potassium ferrocyanide overnight at 4° C. Samples were then washed 3 times in 0.1 M sodium cacodylate, dehydrated with ethanol, and embedded in Epon 812 for staining and sectioning. Images were acquired using a JEOL JEM-1400 Digital Capture transmission electron microscope.

[4] = system: cytoplasmic viral assembly compartment (cVAC); assay: cVAC morphology / localization of viral and cellular markers by fluorescence microscopy; type: cell-based, human
Protocol: Coverslips or chamber slides containing either uninfected or HCMV-infected cells were washed in phosphate-buffered saline (PBS) and fixed in 2% paraformaldehyde for 15 min at room temperature. Cells were blocked in PBS containing 10% human serum, 0.5% Tween-20, and 5% glycine. 0.1% Triton-X 100 was added for permeabilization. Primary and secondary antibodies as specified in the antibody section were diluted in blocking buffer. Nuclei were stained with DAPI prior to mounting with ProLong Diamond Antifade Mountant (ThermoScientific). For live-cell experiments using the pp28-mCherry virus, cells were grown on glass bottom microwell dishes (MatTek Corporation) and nuclei were stained with NucBlue Live Cell Stain ReadyProbes reagent (ThermoScientific). All images were acquired using a C2+ Confocal Microscope System (Nikon). Images were processed using NIS elements software. Images shown are volume renderings of Z-stacks.

HCMV-infected cells = assay: Western blot analysis of HCMV-infected cell lysates; type: cell-based, human; details: MOI=3, 10 μM
Protocol: Total cell lysates were prepared from uninfected or HCMV-infected cells (MOI=3) at the indicated time points by harvesting lystates in radioimmunoprecipitation assay buffer (1% NP-40, 1% sodium deoxycholate, 0.1% sodium dodecyl sulfate [SDS], 0.15 M NaCl, 10 mM sodium phosphate [pH 7.2], 2 mM EDTA, 50 mM NaF, 1 mM phenylmethylsulfonyl fluoride, […], 0.2 mM Na3VO4, 1 μg/ml leupeptin). After centrifugation, the supernatant was collected and stored at −80° C. The protein was quantified by a Bradford assay (Bio-Rad) and samples were analyzed by SDS-PAGE gel electrophoresis and immunoblotting on nitrocellulose or PVDF membrane blocked with 5% milk or 5% BSA in tris-buffered saline (0.1% tween). Antibody dilutions were in accordance with manufacturer's instructions.

Structure (SMILES): Cc1nc(-c2ccc(C3N(C)c4ccccc4C(=O)N3c3ccccc3)s2)cs1 (stereo not shown) [Retro94, 1-Methyl-2-(5-(2-methylthiazol-4-yl)thiophen-2-yl)-3phenyl-2,3-dihydroquinazolin-4(1H)-one]
- decrease of levels of HSV-1 (HSV-1): ~90%
- IC50 (HCMV [1]; Human betaherpesvirus 5, added at 2 hpi, MOI 3, 96 hpi, read-out: IC50 (HCMV titers)): ~130 nM
- reduction of production of infectious virions (HCMV [1]; MOI 3 pfu/cell, added two hours after infection, 10 μM): greater than two
- reduction in infectious virion production (HCMV [1]; added at 2 hpi): two
- reduction in infectious virion production (HCMV [1]; added at 24 hpi): 20 fold
- reduction in infectious virion production (HCMV [1]; added at 48 hpi): 5 fold
- reduction in infectious virion production (HCMV [1]; added at 72 hpi): two
- dilution at which a significant inhibition in viral titers was first present (HCMV [1]; ten-fold dilutions added at 2 hpi, MOI 3, 96 hpi): 1 µM
- reduction in the amount of infectious virus produced (HCMV [2]): five
- capsids in perinuclear region (EM) [3]: largely devoid of capsids at all stages of maturation
- localization of viral proteins pp28, pp150 and glycoprotein B ([4]; 96 hpi, 10 μM): dispersed throughout the cytoplasm and were no longer present in the cVAC
- localization of GS27 and GS28 ([4]; MOI=3, 96 hpi): mostly remained in a perinuclear localization
- localization of markers of Golgi (GM130), TGN (p230) and endosomes (EEA1) ([4]; MOI=3, 96 hpi): retained their perinuclear localization
- normal cVAC morphology ([4]; MOI=3, 96 hpi): did not form
- cVAC as detected by pp28-mCherry ([4]; added at 2 or 24 hpi, imaged at 96 hpi): no area representing a cVAC was detected
- pp28 localization (pp28-mCherry) ([4]; added at 48 hpi, imaged at 96 hpi): largely dispersed throughout the cell
- perinuclear pp28 regions reminiscent of the cVAC ([4]; added at 72 hpi, imaged at 96 hpi): more prominent
- STX5 protein level during infection (HCMV-infected cells): did not reach the same level as observed in control-treated samples
- steady state levels of immediate-early and late viral proteins (HCMV-infected cells; 24-96 hpi): not affected

From patent US10781203B2, “Nontoxic compounds for the treatment and prevention of herpesvirus infections” (The Penn State Research Foundation, priority 2016, dated 2020)
